Measurements from the RepoRT retention time repository.

test: RP, Waters CORTECS UPLC C18, 100 × 2.1 mm, 1.6 µm, 40 °C, 0.4 mL/min, estimated dead time 0.55 min; A: water + 0.1% formic acid, pH 3; B: acetonitrile + 0.1% formic acid, pH 3; gradient (min/%B) 0/5 1.12/5 6.41/99.5 10.01/99.5; conditions: stereoisomer not certain

Row | LC retention time [min] | Compound
1 | 4.29 | CCCCCCCCCC[n+]1cccc(S(=O)(=O)[O-])c1 [C10-APS]
2 | 6.25 | Cc1nn(C)c(Oc2ccccc2)c1C=NOCc1ccc(C(=O)OC(C)(C)C)cc1 [Fenpyroximate]
3 | 6.81 | CCCCCCCCCCCCCCCCCCC[n+]1cccc(S(=O)(=O)[O-])c1 [C19-APS]
4 | 2.22 | CC=C(C)C(=O)NCC(=O)O [Tiglyl Glycine]
5 | 6.18 | CC(C)=CCCC(C)=CCCC(C)=CCCC=C(C)CCC=C(C)CCC=C(C)C [SQUALENE]
6 | 3.35 | N[C@@H](Cc1cc(I)c(Oc2ccc(O)cc2)c(I)c1)C(=O)O [3,5-DIIODO-L-THYRONINE]
7 | 6.34 | CCCCCCCCCCCCCCCCC[n+]1cccc(S(=O)(=O)[O-])c1 [C17-APS]
8 | 4.84 | CN(C)C(=O)Nc1ccc(Oc2ccc(Cl)cc2)cc1 [Chloroxuron]
9 | 5.23 | CCNc1nc(Cl)nc(N(CC)CC)n1 [Trietazin]
10 | 3.14 | CC(=O)NC(Cc1c[nH]c2ccccc12)C(=O)O (stereo unspecified) [N-ACETYLTRYPTOPHAN]
11 | 1.79 | NC(=O)[C@@H](N)Cc1c[nH]c2ccccc12 [L-TRYPTOPHANAMIDE]
12 | 3.52 | O=C(O)CCCCCCCC(O)C(O)CCCCCCO (stereo unspecified) [Aleuritic acid]
13 | 3.05 | OCCc1c[nH]c2ccccc12 [INDOLE-3-ETHANOL]
14 | 4.13 | CC(CCC(=O)O)C1CCC2C3C(=O)CC4CC(=O)CCC4(C)C3CC(=O)C12C (stereo unspecified) [Dehydrocholic acid]
15 | 0.798 | O=CC(O)C(O)C(O)CO (stereo unspecified) [ARABINOSE]
16 | 2.64 | Cc1cc2nc[nH]c2cc1C [5,6 DIMETHYLBENZIMIDAZOLE]
17 | 2.35 | O=C(O)c1cc(=O)c2ccccc2[nH]1 [KYNURENATE]
18 | 4.16 | CC(CCC(=O)NCCS(=O)(=O)O)C1CCC2C3CCC4CC(O)CCC4(C)C3CC(O)C12C (stereo unspecified) [Taurodeoxycholic acid]
19 | 3.71 | NC(Cc1cc(I)c(Oc2ccc(O)c(I)c2)c(I)c1)C(=O)O (stereo unspecified) [LIOTHYRONINE]

Row | LC retention time [min] | Compound
20 | 0.751 | Nc1nc2c(ncn2C2CC(O)C(CO)O2)c(=O)[nH]1 (stereo unspecified) [DEOXYGUANOSINE]
21 | 0.792 | Cc1ncc2c(c1O)C(=O)OC2 [4-Pyridoxolactone]
22 | 0.722 | Nc1c(O)cccc1C(=O)O [3-HYDROXYANTHRANILATE]
23 | 2.13 | O=Cc1ccc(O)cc1 [4-HYDROXYBENZALDEHYDE]
24 | 4.58 | CC(CCC(=O)O)C1CCC2C3CC(O)C4CC(O)CCC4(C)C3CCC12C (stereo unspecified) [Hyodeoxycholic acid]
25 | 2.67 | Cc1cc2nc3c(=O)[nH]c(=O)nc-3n(CC(O)C(O)C(O)CO)c2cc1C (stereo unspecified) [RIBOFLAVIN]
26 | 3.7 | O=C(O)CCc1c[nH]c2ccccc12 [Indole-3-propionic acid]
27 | 3.97 | NC(Cc1cc(I)c(Oc2cc(I)c(O)c(I)c2)c(I)c1)C(=O)O (stereo unspecified) [THYROXINE]
28 | 2.47 | CC(CCC(=O)O)C(=O)O (stereo unspecified) [2-METHYLGLUTARATE]
29 | 5.12 | CC(CCC(=O)O)C1CCC2C3C(O)CC4CC(O)CCC4(C)C3CCC12C (stereo unspecified) [Chenodeoxycholic acid]
30 | 2.34 | CSCCC(NC(C)=O)C(=O)O (stereo unspecified) [N-ACETYLMETHIONINE]
31 | 0.766 | O=C(O)c1ccc[nH]1 [PYRROLE-2-CARBOXYLATE]
32 | 2.55 | O=CCc1c[nH]c2ccccc12 [INDOLEACETALDEHYDE]
33 | 1.1 | Cc1cn(C2CC(O)C(CO)O2)c(=O)[nH]c1=O (stereo unspecified) [THYMIDINE]
34 | 4.7 | CC(C)(C)C(O)C(Cc1ccc(Cl)cc1)n1cncn1 (stereo unspecified) [Paclobutrazol]
35 | 3.28 | O=Cc1c[nH]c2ccccc12 [Indole-3-carboxaldehyde]
36 | 2.89 | NC(=O)Cc1c[nH]c2ccccc12 [INDOLE-3-ACETAMIDE]
37 | 0.817 | CC(=O)NCCCC(=O)O [4-ACETAMIDOBUTANOATE]
38 | 0.792 | Cc1c[nH]c(=O)[nH]c1=O [THYMINE]

Row | Compound | LC retention time [min]
39 | CCN(CC)C(=O)C(Cl)=C(C)OP(=O)(OC)OC (mixture of isomers) [Phospamidon (Mix of isomers)] | 3.69
40 | C#CCN1C(=O)COc2cc(F)c(N3C(=O)C4=C(CCCC4)C3=O)cc21 [Flumioxazin] | 4.77
41 | Cc1cc(C)nc(Nc2ccccc2)n1 [Pyrimethanil] | 4.13
42 | CCC(C)(NC(=O)c1cc(Cl)c(C)c(Cl)c1)C(=O)CCl (stereo unspecified) [Zoxamide] | 5.55
43 | N#CCNC(=O)c1cnccc1C(F)(F)F [Flonicamid] | 2.88
44 | CC(COc1ccc(Oc2ccccc2)cc1)Oc1ccccn1 (stereo unspecified) [Pyripoxyfen] | 6.07
45 | CC(C)(C)C(O)(CCc1ccc(Cl)cc1)Cn1cncn1 (stereo unspecified) [Tebuconazole] | 5.06
46 | Fc1ccc(C2(Cn3cncn3)OC2c2ccccc2Cl)cc1 (stereo unspecified) [Epoxiconazol] | 4.94
47 | CC1(C)CN=C(NN=C(C=Cc2ccc(C(F)(F)F)cc2)C=Cc2ccc(C(F)(F)F)cc2)NC1 [Hydramethylnon (Amdro)] | 5.14
48 | CC1(C)CON(Cc2ccccc2Cl)C1=O [Clomazone] | 4.64
49 | CC1(C)CCC(=Cc2ccc(Cl)cc2)C1(O)Cn1cncn1 (stereo unspecified) [Triticonazole] | 4.76
50 | CON=C(C1=NOCCO1)c1ccccc1Oc1ncnc(Oc2ccccc2Cl)c1F [Fluoxastrobin] | 5.22
51 | COCC(=O)N(c1c(C)cccc1C)C(C)C(=O)OC (stereo unspecified) [Metalaxyl] | 4.33
52 | Cc1cc(C)c(C2=C(OC(=O)CC(C)(C)C)C3(CCCC3)OC2=O)c(C)c1 [Spiromesifen] | 6.47
53 | CC(C)N1C(=O)N(c2ccccc2)CSC1=NC(C)(C)C [Buprofezin] | 5.45
54 | COC(=O)N(OC)c1ccccc1COc1ccn(-c2ccc(Cl)cc2)n1 [Pyraclostrobin] | 5.6
55 | COC(=O)c1ccccc1S(=O)(=O)NC(=O)Nc1nc(C)nc(OC)n1 [Metsulfuron-methyl] | 3.99
56 | CCN(Cc1ccc(Cl)nc1)C(=C[N+](=O)[O-])NC [Nitenpyram] | 2.6
57 | CNC(=O)N(C)c1nnc(C(C)(C)C)s1 [Tebuthiuron] | 3.68
58 | CC1(C(=O)Nc2ccc(O)c(Cl)c2Cl)CCCCC1 [Fenhexamid] | 5
59 | CCCCc1c(C)nc(NCC)[nH]c1=O [Ethirimol] | 3.01
60 | C#CCOc1ccc(CCNC(=O)C(OCC#C)c2ccc(Cl)cc2)cc1OC (stereo unspecified) [Mandipropamid] | 4.95
61 | CCON=C(CC)C1=C(O)CC(c2c(C)cc(C)cc2C)CC1=O (stereo unspecified) [Tralkoxidym] | 6.22
62 | CC1(C)CCC(Cc2ccc(Cl)cc2)C1(O)Cn1cncn1 (stereo unspecified) [Metconazole] | 5.24
63 | N#CC(CCc1ccc(Cl)cc1)(Cn1cncn1)c1ccccc1 (stereo unspecified) [Fenbucanozole] | 5.11
64 | CNC(=O)Oc1cc(C)c(N(C)C)c(C)c1 [Mexacarbate] | 2.61
65 | CSc1nnc(C(C)(C)C)c(=O)n1N [Metribuzin] | 3.98
66 | CC(Cc1ccc(C(C)(C)C)cc1)CN1CCCCC1 (stereo unspecified) [Fenpropidine] | 4.27
